Data from ChEMBL document CHEMBL4130624, “Optimization of 1,4-Oxazine β-Secretase 1 (BACE1) Inhibitors Toward a Clinical Candidate” (J Med Chem, 2018).

Experiments:
TK6 [1] = assay: Genotoxicity in human TK6 cells up to […] after 24 hrs in absence of rat liver S9 fraction by micronucleus assay; assay type: toxicity, cell-based; details: tk6, 24 h
TK6 [2] = assay: Genotoxicity in human TK6 cells at 500 ug/ml after 24 hrs in presence of rat liver S9 fraction by micronucleus assay; assay type: toxicity, cell-based; details: s9, 24 h
Beta-secretase 1 [3] = biological target: T1, Beta-secretase 1 (Homo sapiens, UniProt P56817); assay: Inhibition of BACE1 (1 to 454 residues) (unknown origin) using APP derived polypeptide harboring Lys-Met/Asn-Leu mutation as substrate by FRET assay
Beta-secretase 1 [4] = biological target: T1, Beta-secretase 1; assay: Inhibition of BACE1 in human SKNBE2 cells transfected with APP695 protein assessed as reduction in amyloid beta (1 to 42) levels after 18 hrs by sandwich alphalisa assay; assay type: cell-based
[5] = biological target: Voltage-gated inwardly rectifying potassium channel KCNH2 (Homo sapiens, UniProt Q12809); assay: Inhibition of human ERG expressed in HEK293 cell membranes by radioligand binding assay
[6] = Drug metabolism in mouse liver hepatocytes at 1 uM after 60 mins in presence of NADPH by HPLC-MS/MS analysis; assay type: ADME, cell-based, Hepatocyte; details: read-out: Drug metabolism
Cavia porcellus = assay: Cardiotoxicity in anesthetized guinea pigs assessed as drug level causing QTcB prolongation dosed up to 10 mg/kg, iv administered over a period of 5 min at 15 min interval by ECG analysis; assay type: toxicity, organism-based; details: guinea pig, in vivo
Canis familiaris = assay: Antialzheimer activity in po dosed Beagle dog assessed as reduction in amyloid beta (1 to 40) levels measured after 1 hr post dose by ELISA; assay type: functional, organism-based, Canis lupus familiaris
[7] = Cmax in anesthetized guinea pig; assay type: ADME, organism-based, Cavia porcellus; details: in vivo
[8] = Dissociation constant, pKa of the compound at 25 degC by potentiometric titration assay; assay type: physicochemical
[9] = Fraction unbound in mouse plasma at 5 uM after 4.5 hrs by HPLC-MS/MS method based rapid equilibrium dialysis; assay type: ADME, cell-free
[10] = Fraction unbound in rat brain at 5 uM after 5 hrs by HPLC-MS/MS method based rapid equilibrium dialysis; assay type: ADME, tissue-based
[11] = Ratio of total drug level in brain to plasma of in CD1 Swiss specific pathogen free mouse at 10 mg/kg, po after 4 hrs; assay type: ADME, organism-based
[12] = Ratio of total unbound drug level in brain to plasma of in CD1 Swiss specific pathogen free mouse at 10 mg/kg, po after 4 hrs; assay type: ADME, organism-based; details: read-out: K(p,uu,brain)
Mus musculus [13] = assay: Antialzheimer activity in CD1 Swiss specific pathogen free mouse assessed as reduction in amyloid beta (1 to 40) levels at 10 mg/kg, po measured after 2 hrs post dose by ELISA; assay type: functional; parameters: scale not given: the % may be the effect or the level left
Mus musculus [14] = assay: Antialzheimer activity in CD1 Swiss specific pathogen free mouse assessed as reduction in amyloid beta (1 to 40) levels at 10 mg/kg, po measured after 4 hrs post dose by ELISA; assay type: functional; parameters: scale not given: the % may be the effect or the level left
[15] = system: MDR1 (P-gp) (Homo sapiens); assay: Apparent permeability across apical to basolateral side in pig LLC cells transfected with human MDR1 at 5 uM in absence of elacridar by LC-MS/MS analysis; details: LLC-PK1
hERG (KCNH2) = hERG (KCNH2) (Homo sapiens, UniProt Q12809); assay: Inhibition of human ERG expressed in HEK293 cells assessed as reduction in outward potassium current at 3 uM at holding potential was -80 mV after 5 mins by patch clamp assay; assay type: cell-based; details: HEK293 cells that express hERG
[16] = Drug metabolism in human liver microsomes at 1 uM after 15 mins in presence of NADPH by HPLC-MS/MS analysis; assay type: ADME, microsome; details: read-out: Drug metabolism
[17] = Drug metabolism in mouse liver microsomes at 1 uM after 15 mins in presence of NADPH by HPLC-MS/MS analysis; assay type: ADME, microsome; details: read-out: Drug metabolism
Mus musculus [18] = assay: Antialzheimer activity in CD1 Swiss specific pathogen free mouse assessed as reduction in amyloid beta (1 to 40) levels at 10 mg/kg, po measured after 1 hr post dose by ELISA; assay type: functional; parameters: scale not given: the % may be the effect or the level left
HepG2 = assay: Cytotoxicity against human HepG2 cells assessed as effect on cell health indicators after 72 hrs by automated fluorescence microscopy based high content screening based assay; assay type: ADME; details: hepg2, 72 h
[19] = Drug uptake in mouse brain at 30 mg/kg, po measured at 2 to 4 hrs; assay type: ADME, organism-based; details: in vivo
[20] = Drug uptake in mouse brain at 10 mg/kg, po measured at 2 to 4 hrs; assay type: ADME, organism-based; details: in vivo
[21] = Plasma concentration in mouse at 10 mg/kg, po after 4 hrs; assay type: ADME, organism-based

hERG (KCNH2), sequence (Q12809 whole entry): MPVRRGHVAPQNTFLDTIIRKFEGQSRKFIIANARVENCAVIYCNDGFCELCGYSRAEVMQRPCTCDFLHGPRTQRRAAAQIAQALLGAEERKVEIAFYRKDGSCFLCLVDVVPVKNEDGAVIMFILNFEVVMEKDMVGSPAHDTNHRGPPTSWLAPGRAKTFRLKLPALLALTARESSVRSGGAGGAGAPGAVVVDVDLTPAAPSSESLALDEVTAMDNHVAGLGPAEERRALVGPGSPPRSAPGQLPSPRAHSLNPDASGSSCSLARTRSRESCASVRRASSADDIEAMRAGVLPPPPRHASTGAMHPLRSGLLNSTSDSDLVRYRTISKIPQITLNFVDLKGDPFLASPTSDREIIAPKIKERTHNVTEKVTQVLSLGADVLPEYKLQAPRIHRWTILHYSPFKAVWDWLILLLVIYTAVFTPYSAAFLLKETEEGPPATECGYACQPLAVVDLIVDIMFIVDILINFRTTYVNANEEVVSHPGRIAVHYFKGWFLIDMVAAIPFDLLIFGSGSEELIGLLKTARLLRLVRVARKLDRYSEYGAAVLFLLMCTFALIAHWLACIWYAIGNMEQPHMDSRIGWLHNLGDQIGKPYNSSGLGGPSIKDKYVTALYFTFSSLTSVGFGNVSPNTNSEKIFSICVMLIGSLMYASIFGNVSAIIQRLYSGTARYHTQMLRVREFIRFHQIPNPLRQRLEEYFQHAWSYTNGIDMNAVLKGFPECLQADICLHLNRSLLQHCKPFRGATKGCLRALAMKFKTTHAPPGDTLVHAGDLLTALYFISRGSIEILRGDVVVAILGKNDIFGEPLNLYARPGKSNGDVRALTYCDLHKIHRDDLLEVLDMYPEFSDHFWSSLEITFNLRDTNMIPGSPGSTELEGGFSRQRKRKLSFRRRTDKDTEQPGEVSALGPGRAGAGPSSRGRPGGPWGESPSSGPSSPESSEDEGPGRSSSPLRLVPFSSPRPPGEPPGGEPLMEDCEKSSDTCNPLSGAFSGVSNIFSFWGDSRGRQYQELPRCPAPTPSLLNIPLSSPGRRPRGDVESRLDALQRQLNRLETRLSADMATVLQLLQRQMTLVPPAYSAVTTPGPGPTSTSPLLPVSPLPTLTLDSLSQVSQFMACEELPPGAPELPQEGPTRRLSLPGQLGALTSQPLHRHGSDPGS
Voltage-gated inwardly rectifying potassium channel KCNH2, sequence (Q12809 whole entry): as above
T1 sequence (P56817 whole entry, the tested form may be a part): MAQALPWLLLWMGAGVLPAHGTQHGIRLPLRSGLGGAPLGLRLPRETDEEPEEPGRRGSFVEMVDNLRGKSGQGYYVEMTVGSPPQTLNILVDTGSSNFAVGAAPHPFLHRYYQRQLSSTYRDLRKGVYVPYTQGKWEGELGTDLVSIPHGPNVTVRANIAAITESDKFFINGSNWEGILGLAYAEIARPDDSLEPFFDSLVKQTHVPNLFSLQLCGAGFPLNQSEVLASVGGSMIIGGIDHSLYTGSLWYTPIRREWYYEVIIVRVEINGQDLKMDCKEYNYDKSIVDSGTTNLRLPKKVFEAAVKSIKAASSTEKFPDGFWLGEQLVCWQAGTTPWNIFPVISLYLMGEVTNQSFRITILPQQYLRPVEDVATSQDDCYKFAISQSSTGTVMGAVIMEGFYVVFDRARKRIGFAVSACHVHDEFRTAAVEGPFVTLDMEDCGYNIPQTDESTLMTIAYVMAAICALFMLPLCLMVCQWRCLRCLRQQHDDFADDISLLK

Structure (SMILES) | IC50 (Beta-secretase 1 [3]) [nM] | IC50 (Beta-secretase 1 [4]) [nM] | IC50 [5] [nM] | inhibition at 5 min, 3 µM (hERG (KCNH2)) [%] | metabolised at 0.25 h, 1 µM [16] [%] | metabolised at 0.25 h, 1 µM [17] [%] | other results
C[C@]1(c2cc(N)ccc2F)N=C(N)CO[C@H]1C(F)(F)F |  |  |  |  |  |  | Activity (TK6 [1]): Non-Toxic; Activity (TK6 [2]): Non-Toxic
C[C@]1(c2cc(NC(=O)c3cnc(OCC(F)(F)F)cn3)ccc2F)N=C(N)CO[C@H]1C(F)(F)F | 24.5 | 20.9 |  |  |  |  | 
C[C@]1(c2cc(NC(=O)c3ccc(C#N)cn3)ccc2F)N=C(N)CO[C@@H]1F |  |  | 8000 |  |  |  | metabolised at 1 h, 1 µM [6]: 0%; LOAEL (Cavia porcellus): 475 ng/mL; fLOAEL (Cavia porcellus): 0.55 µM; fNOAEL (Cavia porcellus): 0.2 µM; fEC50 (Canis familiaris): 0.023 µM; Cmax [7]: 475 ng/mL
C[C@@]1(c2cc(N/C=C/c3ccc(C#N)cn3)ccc2F)COCC(N)=N1 | 2340 | 251 |  |  |  |  | 
COc1cnc(C(=O)Nc2ccc(F)c([C@@]3(C)N=C(N)COC3=C(F)F)c2)cn1 | 151 | 35.1 | > 10000 |  |  |  | pKa [8]: 7.9; fraction unbound at 4.5 h, 5 µM [9]: 0.146; fraction unbound at 5 h, 5 µM [10]: 0.017; Kp at 4 h [11]: 0.97; Kp uu at 4 h [12]: 0.11; Activity (Mus musculus [13]): 6%; Activity (Mus musculus [14]): 7%; Papp A→B at 5 µM [15]: 8.63 ×10⁻⁶ cm/s
COc1cnc(C(=O)Nc2ccc(F)c([C@@]3(C)N=C(N)CO[C@H]3C(F)(F)F)c2)cn1 |  |  | > 10000 | 19 | 2 | 19 | pKa [8]: 7.8; fraction unbound at 4.5 h, 5 µM [9]: 0.155; fraction unbound at 5 h, 5 µM [10]: 0.02; Kp at 4 h [11]: 1.81; Kp uu at 4 h [12]: 0.23; Activity (Mus musculus [18]): 23%; Activity (Mus musculus [13]): 37%; Activity (Mus musculus [14]): 29%; MTC (HepG2): 15.6 µM; Papp A→B at 5 µM [15]: 13.7 ×10⁻⁶ cm/s
C[C@]1(c2cc(-c3cncnc3)ccc2F)N=C(N)CO[C@H]1C(F)(F)F (racemic) | 1860 | 631 |  |  | 7 | 51 | 
C[C@]1(c2cc(NC(=O)c3ncc(C#N)cc3F)ccc2F)N=C(N)CO[C@@H]1F | 18.4 | 12.2 | > 10000 | 24 | 11 | 19 | Drug uptake [19]: Not Active; Papp A→B at 5 µM [15]: 1.05 ×10⁻⁶ cm/s
COc1cnc(C(=O)Nc2ccc(F)c([C@@]3(C)N=C(N)CO[C@@H]3F)c2)cn1 |  |  | > 10000 |  |  |  | Kp at 4 h [11]: 0.6; Kp uu at 4 h [12]: 0.09; Activity (Mus musculus [18]): 39%; Activity (Mus musculus [13]): 65%
C[C@]1(c2cc(NC(=O)c3ncc(C#N)cc3Cl)ccc2F)N=C(N)CO[C@H]1C(F)(F)F |  |  |  | 13 | 38 | 38 | 
C[C@]1(c2cc(NC(=O)c3ncc(C#N)cc3Cl)ccc2F)N=C(N)CO[C@@H]1F | 10.7 | 15.5 | > 10000 | 19 | 1 | 0 | Drug uptake [20]: Not Active; metabolised at 1 h, 1 µM [6]: 55%; concentration at 4 h [21]: 38 ng/mL; Papp A→B at 5 µM [15]: 3.06 ×10⁻⁶ cm/s
C[C@]1(c2cc(NC(=O)c3cnc(NCC(F)(F)F)cn3)ccc2F)N=C(N)CO[C@H]1C(F)(F)F | > 10000 | 4500 |  |  |  |  | 
C[C@]1(c2cc(NC(=O)c3cnc(OC(F)(F)C(F)(F)F)cn3)ccc2F)N=C(N)CO[C@H]1C(F)(F)F | 30.2 | 49 |  |  |  |  | 
C[C@]1(c2cc(NC(=O)c3cnc(N4CCC4)cn3)ccc2F)N=C(N)CO[C@H]1C(F)(F)F | 457 | 115 |  |  |  |  | 
COCCOc1cnc(C(=O)Nc2ccc(F)c([C@@]3(C)N=C(N)CO[C@H]3C(F)(F)F)c2)cn1 | 40.7 | 12.5 |  |  | 56 | 59 | 
COc1cnc(C(=O)Nc2ccc(F)c([C@@]3(C)N=C(N)CO[C@H]3C(F)F)c2)cn1 | 11.4 | 4.9 | > 10000 | 24 |  |  | pKa [8]: 8.4; fraction unbound at 4.5 h, 5 µM [9]: 0.279; fraction unbound at 5 h, 5 µM [10]: 0.047; Kp at 4 h [11]: 0.4; Kp uu at 4 h [12]: 0.07; Activity (Mus musculus [18]): 11%; Activity (Mus musculus [13]): 38%; Activity (Mus musculus [14]): 40%; Papp A→B at 5 µM [15]: 4.8 ×10⁻⁶ cm/s
C[C@]1(c2cc(NC(=O)c3ccc(Cl)cn3)ccc2F)N=C(N)CO[C@H]1C(F)(F)F |  |  |  | 27 | 0 | 48 | MTC (HepG2): 13.6 µM
C[C@]1(c2cc(NC(=O)c3cnc(NC4CC4)cn3)ccc2F)N=C(N)CO[C@H]1C(F)(F)F | 3020 | 603 |  |  |  |  | 
